This is an account of results in paper PMC4434089 (Biotechnology, Biotechnological Equipment, 2014).

Where two headings read alike, the source gives them in different places. Marks after values point to notes of the source that are not given here.

In data set [1] the test system is amylin-mediated cytotoxicity. The arrangement: method as in PMID 20093026. The note with it: cited from earlier work.
The test system of a further data set is amylin. In words: NTA of amylin aggregation, alone or with amylin derivatives. The settings on record: for implied effect on fibrillogenesis of amylin: NTA compared with previously published reports; for Concentration of aggregates 100–150 nm, 10 min / Concentration of aggregates 200–300 nm, 10 min / Concentration of aggregates 150–200 nm, 10 min / Concentration of aggregates 100–150 nm, 24 h / Concentration of aggregates 200–300 nm, 24 h / Concentration of aggregates 150–200 nm, 24 h: 37 °C, amylin 50 μmol L^−1 alone (A) or with 250 μmol L^−1 derivative, pH 7.4, duplicate; for Concentration of aggregates 100–150 nm, 10 min: 10 mmol L^−1 sodium phosphate, 50 mmol L^−1 NaCl; for Concentration of aggregates 100–150 nm, 10 min / Concentration of aggregates 150–200 nm, 10 min: p < 0.05 less than A: n1, n5, m5; for Concentration of aggregates 200–300 nm, 10 min: p < 0.05 less than A: n1, n3, n5, m1, m2, m3, m4, m5; for Concentration of aggregates 100–150 nm, 24 h: p < 0.05 less than A: n1, n2, m5, significantly more: m2; for Concentration of aggregates 200–300 nm, 24 h: p < 0.05 less than A: n1, n2, n3, n4, n5, m5; for Concentration of aggregates 150–200 nm, 24 h: p < 0.05 less than A: n1, n2, n5, m5; for number of 200–300 nm aggregates at 24 h vs amylin only: amylin:derivative 50:250 μmol L^−1, p < 0.05. Format: biochemical, human. The protocol: NTA measurements were performed with a NanoSight LM20 instrument (NanoSight, United Kingdom) equipped with a 640 nm laser and a temperature controlled sample chamber. […] The sample temperature was maintained at 37 °C for the entire duration of the experiment. These experimental conditions were similar to that used for a previously reported cytotoxicity experiment,[73] thus allowing correlation of results obtained from the two techniques. […] Once again, samples were maintained at 37 °C and 60 s video footage were recorded every 10 min for the first hour and then at 24 h. All videos were captured with the single shutter and gain modes. Analysis was performed using NanoSight NTA version 2.2 software with a viscosity setting of 0.70.

The test system of another data set is full length amylin. Also on record: method as in 2 sources, one per row (each row's own in cited_ref): ref 58 = [58]; PMID 14565847; doi:10.1042/BJ20030852; Jaikaran E Nilsson MR Clark A Biochem J. 2004 377 709 716 14565847 10.1042/BJ20030852 PMC1223903 ||| ref 68, 93 = [68]; PMID 12054816; doi:10.1016/S0022-2836(02)00164-X; Scrocchi LA Chen Y Waschuk S Wang F Cheung S Darabie AA McLaurin J Fraser PE J Mol Biol. 2002 318 697 706 12054816 10.1016/S0022-2836(02)00164-X || [93]; PMID 12648568; doi:10.1016/s1047-8477(02)00630-5; Scrocchi LA Ha K Chen Y Wu L Wang F Fraser PE J Struct Biol. 2003 141 218 227 http://dx.doi.org/10.1016/s1047-8477(02)00630-5 12648568 10.1016/s1047-8477(02)00630-5. The note with it: cited from earlier work.

Data set [2] has as its system Aβ. The note with it: SPR, cited from earlier work. An excerpt:
This was further supported by a recent SPR-based Aβ study that determined a ka of 0.01 complexes per second for Aβ association following first-order kinetics, whilst the kd wa ...
A general note: In SPR one partner is held on a chip, and binding of the other changes the refractive index at the surface.

Data set [3] relates to Aβ. The settings on record: cited from earlier work. An excerpt:
According to a model developed by Petkova et al.,[81] the 12-21 and 30-40 regions of the Aβ peptide form the β-she ...

Data set [4] has as its system sensor chip-bound biotinylated amylin. The arrangement: method as in PMID 14565847. The note with it: insulin over sensor chip-bound biotinylated amylin; cited from earlier work.

Turning to NFGAIL [n4], the “reduction of amylin-mediated cytotoxicity” value in data set [1] is “more than 40%”. For the same substance, the “implied effect on fibrillogenesis of amylin” value in the data set on amylin is recorded as “increase fibrillogenesis of amylin to an aggregate that is larger than 1000 nm”. For the same substance, in the data set on amylin (NTA, 10 min), the “Concentration of aggregates 100–150 nm, 10 min” value is listed as 3.8 ×10^7 aggregates/mL; the “Concentration of aggregates 200–300 nm, 10 min” value is recorded as 5.1 ×10^7 aggregates/mL; the “Concentration of aggregates 150–200 nm, 10 min” value is reported as 2.3 ×10^7 aggregates/mL. Moreover, the “concentrations of 100–150, […]–200 and 200–300 nm aggregates at 10 min vs amylin only” value in the data set with amylin (NTA, 10 min, amylin:derivative 50:250 μmol L^−1, unpaired t-test) is “not significantly different”. In addition, in the data set on amylin (NTA), the “Concentration of aggregates 100–150 nm, 24 h” value is given as 1.7 ×10^7 aggregates/mL; the “Concentration of aggregates 200–300 nm, 24 h” value is given as 1.7* ×10^7 aggregates/mL; the “Concentration of aggregates 150–200 nm, 24 h” value is reported as 1.8 ×10^7 aggregates/mL; the “number of 200–300 nm aggregates at 24 h vs amylin only” value is “significantly lower than in samples containing amylin only”. In the data set with full length amylin, the “fibril formation of full length amylin in presence of derivative” value is listed as “fibril formation of full length amylin was enhanced”.

On to FLVHSS [n3], for which the “reduction of amylin-mediated cytotoxicity” value in data set [1] was “more than 40%”. The “implied effect on fibrillogenesis of amylin” value in the data set with amylin was “increase fibrillogenesis of amylin to an aggregate that is larger than 1000 nm”. In addition, in the data set on amylin (NTA, 10 min), the “Concentration of aggregates 100–150 nm, 10 min” value was 2.0 ×10^7 aggregates/mL; the “Concentration of aggregates 200–300 nm, 10 min” value is 1.4* ×10^7 aggregates/mL; the “Concentration of aggregates 150–200 nm, 10 min” value is listed as 1.2 ×10^7 aggregates/mL. Also, in the data set with amylin (NTA), the “Concentration of aggregates 100–150 nm, 24 h” value is 3.4 ×10^7 aggregates/mL; the “Concentration of aggregates 200–300 nm, 24 h” value was 1.9* ×10^7 aggregates/mL; the “Concentration of aggregates 150–200 nm, 24 h” value is given as 2.1 ×10^7 aggregates/mL; the “number of 200–300 nm aggregates at 24 h vs amylin only” value is on record as “significantly lower than in samples containing amylin only”. The “effect on amylin aggregation over 24 h” value in the data set with amylin (NTA, all size ranges, amylin:derivative 50:250 μmol L^−1, vs amylin only) was “small amount of aggregates of all size ranges which increases only marginally over 24 h”. In addition, the “fibril formation of full length amylin in presence of derivative” value in the data set with full length amylin is reported as “fibril formation of full length amylin was enhanced”.

In the case of “Aβ1–40: amyloid beta; SPR-derived kinetics were generated using the 1–40 form of Aβ”, the Aβ association rate in the data set with Aβ [2] (conditions similar to present study) is 0.01 complexes per second. Also, the Aβ dissociation kd in the data set on Aβ [2] (global fit, first-order kinetic model) was 0.00223 s⁻¹; in the data set with Aβ [2] (printed spread ± 1.3 × 10^−4 s^−1), 0.00092 s⁻¹. The Aβ dissociation time is listed as 7.5 min with Aβ [2] (ref 39 (by order of citation)) and 18 min in the data set on Aβ [2] (ref 80 (by order of citation)). Moreover, the “aggregation rate compared with 1–42 form of Aβ” value in the data set on Aβ [3] was “aggregate much more slowly than the 1–42 form of Aβ”.

In the case of “insulin: insulin, binding to sensor chip-bound biotinylated amylin”, the “response change during binding to biotinylated amylin” value in data set [4] was 15 RUs. Moreover, the “effect on fibril formation” value with full length amylin is listed as “inhibit fibril formation”.
